Experimental data taken from patent US6551390B1, “Composition containing two different disazodyestuffs useful for ink jet recording” (Avecia Limited, priority 1998, dated 2003).

Assay: Aqueous solubility of dyes and dye composition
Format: physicochemical
Settings: aqueous solubility at 20° C. and pH 9.5
Protocol: The aqueous solubility of Composition (1), Dye (A) and Dye (B) at 20° C. and pH 9.5 is: […]

COc1cc(N=Nc2cccc(S(=O)(=O)O)c2)ccc1NC(=O)Nc1ccc(N=Nc2cccc(S(=O)(=O)O)c2)cc1OC [Dye (A), CI Direct Yellow 132]
Solubility (%): 10.7%
